pIC50: −log10 of the molar value.
Tests used:
STAT5 (Y694) = experiment: IL-2-stimulated STAT5 phosphorylation (JAK3 signaling) in T and NK cells; format: cell-based, human; details: 30 μM
Description: The analysis measured 94 intracellular signaling nodes (81 phosphorylation sites, 10 total protein levels and 3 methylation/acetylation sites) in stimulated immune cells, including B cells (IgM plus CD40L), CD4 + and CD8 + T cells (IL-2; CD3 plus CD28), monocytes (M-CSF), NK cells (IL-2), and granulocytes (LPS).

JAK3 = target: T1, JAK3 (Homo sapiens, UniProt P52333); experiment: Kinase selectivity biochemical assay, JAK3
T1 sequence (P52333 1-1124): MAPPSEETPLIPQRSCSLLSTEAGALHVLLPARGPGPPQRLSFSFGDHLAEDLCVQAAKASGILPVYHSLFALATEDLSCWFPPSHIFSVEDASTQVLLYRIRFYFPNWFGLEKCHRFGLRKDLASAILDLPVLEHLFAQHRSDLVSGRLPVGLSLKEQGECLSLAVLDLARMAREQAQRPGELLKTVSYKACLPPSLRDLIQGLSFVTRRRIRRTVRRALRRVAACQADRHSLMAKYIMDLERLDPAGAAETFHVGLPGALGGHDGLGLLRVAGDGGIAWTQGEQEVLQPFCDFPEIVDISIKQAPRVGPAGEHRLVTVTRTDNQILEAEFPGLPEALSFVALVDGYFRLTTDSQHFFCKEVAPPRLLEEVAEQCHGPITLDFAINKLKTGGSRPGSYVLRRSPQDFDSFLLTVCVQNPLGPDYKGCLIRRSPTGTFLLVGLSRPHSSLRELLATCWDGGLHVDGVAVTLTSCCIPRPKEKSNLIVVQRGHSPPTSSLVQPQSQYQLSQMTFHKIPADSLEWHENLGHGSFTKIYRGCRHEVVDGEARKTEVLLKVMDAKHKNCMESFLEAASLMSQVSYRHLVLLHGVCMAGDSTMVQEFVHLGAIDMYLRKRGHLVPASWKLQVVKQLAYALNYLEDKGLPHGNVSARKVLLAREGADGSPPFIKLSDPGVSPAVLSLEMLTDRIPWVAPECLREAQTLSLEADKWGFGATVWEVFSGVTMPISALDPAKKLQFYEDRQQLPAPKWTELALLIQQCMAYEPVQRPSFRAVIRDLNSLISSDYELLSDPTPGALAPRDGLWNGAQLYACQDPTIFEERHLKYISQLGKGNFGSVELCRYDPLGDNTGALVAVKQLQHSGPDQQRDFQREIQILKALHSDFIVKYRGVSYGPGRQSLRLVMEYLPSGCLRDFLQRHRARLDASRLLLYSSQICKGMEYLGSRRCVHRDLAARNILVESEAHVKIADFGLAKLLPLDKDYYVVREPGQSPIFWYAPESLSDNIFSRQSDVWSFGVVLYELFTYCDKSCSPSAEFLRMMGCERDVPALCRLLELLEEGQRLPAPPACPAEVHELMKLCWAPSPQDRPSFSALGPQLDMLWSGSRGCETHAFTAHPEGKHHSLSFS

BMX = target: T2, BMX (Homo sapiens, UniProt P51813); experiment: Kinase selectivity biochemical assay (FRET), BMX
T2 sequence (P51813 1-675): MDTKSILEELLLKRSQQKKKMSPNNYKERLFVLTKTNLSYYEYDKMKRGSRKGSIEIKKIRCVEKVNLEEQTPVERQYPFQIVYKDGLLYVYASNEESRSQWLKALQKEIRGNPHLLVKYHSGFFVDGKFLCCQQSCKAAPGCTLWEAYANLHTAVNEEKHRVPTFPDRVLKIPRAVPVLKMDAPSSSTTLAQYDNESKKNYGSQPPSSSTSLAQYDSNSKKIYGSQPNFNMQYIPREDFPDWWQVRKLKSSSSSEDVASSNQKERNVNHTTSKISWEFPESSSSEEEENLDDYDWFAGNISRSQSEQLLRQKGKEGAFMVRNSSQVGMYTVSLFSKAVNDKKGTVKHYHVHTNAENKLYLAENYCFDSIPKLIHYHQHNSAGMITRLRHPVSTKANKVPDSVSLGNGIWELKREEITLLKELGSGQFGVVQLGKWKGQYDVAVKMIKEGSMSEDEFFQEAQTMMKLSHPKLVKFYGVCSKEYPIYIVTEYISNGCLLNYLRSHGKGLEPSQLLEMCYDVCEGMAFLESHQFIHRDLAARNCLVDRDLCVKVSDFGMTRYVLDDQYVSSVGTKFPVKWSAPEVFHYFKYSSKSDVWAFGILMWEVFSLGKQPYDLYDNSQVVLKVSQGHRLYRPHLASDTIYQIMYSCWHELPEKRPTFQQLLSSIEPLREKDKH

BTK = BTK (Homo sapiens, UniProt Q06187); experiment: BTK occupancy in B cell line (Ramos cells, biotinylated probe, AlphaScreen); format: cell-based
Description: A total of 5 × 10^5 Ramos cells/well were plated in 96-well PDL-coated plates in DMEM with high glucose (GIBCO) supplemented with 10% FBS. Serial dilutions of LY3439943 in DMSO (final DMSO concentration, 0.4%) were incubated with the cells for 1 h at 37 °C. An equal volume of a covalent biotinylated BTK probe was added (final concentration, 167 nM), and the cells were incubated for another 1 h at 37 °C. The cells were lysed, and the amount of BTK was determined using the AlphaScreen IgG Detection Kit (Perkin Elmer 6760617R) and an anti-BTK antibody (Thermo Scientific Cat# MA5-14929) following the manufacturer’s instructions. The signal was measured at 615 nm with an Envision plate reader (Perkin Elmer).

Sequence of BTK (Q06187 whole entry): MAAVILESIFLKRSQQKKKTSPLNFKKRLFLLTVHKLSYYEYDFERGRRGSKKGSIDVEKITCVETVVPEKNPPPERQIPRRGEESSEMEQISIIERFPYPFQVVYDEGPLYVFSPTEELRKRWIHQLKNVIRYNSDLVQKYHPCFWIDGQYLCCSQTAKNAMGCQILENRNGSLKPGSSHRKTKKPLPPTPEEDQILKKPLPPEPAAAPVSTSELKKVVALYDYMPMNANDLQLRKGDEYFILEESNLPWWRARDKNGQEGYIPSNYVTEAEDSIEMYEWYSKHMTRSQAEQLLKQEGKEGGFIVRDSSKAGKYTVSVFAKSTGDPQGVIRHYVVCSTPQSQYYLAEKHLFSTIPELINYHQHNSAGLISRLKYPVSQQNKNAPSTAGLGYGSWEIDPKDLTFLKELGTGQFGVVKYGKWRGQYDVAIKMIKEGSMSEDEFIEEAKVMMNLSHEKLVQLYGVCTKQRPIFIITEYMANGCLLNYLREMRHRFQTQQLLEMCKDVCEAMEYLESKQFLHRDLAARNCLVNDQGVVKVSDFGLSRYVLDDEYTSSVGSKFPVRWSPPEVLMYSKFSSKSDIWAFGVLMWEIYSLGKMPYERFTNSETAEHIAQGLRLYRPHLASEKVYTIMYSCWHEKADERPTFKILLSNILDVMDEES

With C=CC(=O)Nc1cccc(Oc2nc(Nc3ccc(N4CCN(C)CC4)cc3)nc3ccoc23)c1 [Poseltinib] the “IL-2-stimulated phosphorylation of STAT5 (Y694)” value (“IL-2-stimulated phosphorylation” below) (STAT5 (Y694); CD4 + T cells) was “inhibited”, the “IL-2-stimulated phosphorylation” value (STAT5 (Y694); CD8 + T cells) was “inhibited” and the “IL-2-stimulated phosphorylation” value (STAT5 (Y694); NK cells) was “inhibited”. The “selectivity toward BTK over JAK3” value (JAK3) was 7.5 ×, the pIC50 (BMX) was > 8.00 and the pIC50 (BTK) was 8.30.
